Experimental data from article PMC2883068 (Molecular Microbiology, 2010).

Molecular target: T1, Rex (Staphylococcus aureus, UniProt P60386)
T1 sequence (P60386 1-211): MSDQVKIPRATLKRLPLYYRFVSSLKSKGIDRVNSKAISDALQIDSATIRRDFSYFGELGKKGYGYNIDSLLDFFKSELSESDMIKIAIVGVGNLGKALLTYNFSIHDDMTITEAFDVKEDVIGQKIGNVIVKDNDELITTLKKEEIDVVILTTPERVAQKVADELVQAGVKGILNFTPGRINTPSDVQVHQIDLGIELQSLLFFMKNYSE
Test: isothermal titration calorimetry
Assay type: binding

NC(=O)C1=CN([C@@H]2O[C@H](COP(=O)(O)OP(=O)(O)OC[C@H]3O[C@@H](n4cnc5c(N)ncnc54)[C@H](O)[C@@H]3O)[C@@H](O)[C@H]2O)C=CC1 [NADH]
Kd: 0.095 ± 0.005 µM

NC(=O)c1ccc[n+]([C@@H]2O[C@H](COP(=O)(O)OP(=O)(O)OC[C@H]3O[C@@H](n4cnc5c(N)ncnc54)[C@H](O)[C@@H]3O)[C@@H](O)[C@H]2O)c1 [NAD^+]
Kd: 150 ± 20 µM
